Assay results as given in patent US4352807A, “Hexahydro-trans-pyridoindole neuroleptic agents” (Pfizer Inc., priority 1980, dated 1982).
Where two headings read alike, the source gives them in different places.

Key:
[1] = test system: amphetamine-induced symptoms (characteristic amphetamine behaviour of cage movement); test: Antagonism of amphetamine symptoms in rats (rat amphetamine test); format: in vivo; conditions: block of cage movement in 50% of rats; for ED50: Rattus norvegicus, sc; for ED50, rat amphetamine test, 1 hr.: 60 min; for ED50, rat amphetamine test, 5 hr.: 300 min; for ED50, rat amphetamine test, 24 hr.: 1440 min
Text: The tranquilizing activity of the derivatives may be determined using the well known standard procedure-antagonism of amphetamine-induced symptoms in rats.
The effects of the above examples of Derivatives on prominent amphetamine-induced symptoms were studied in rats by a rating scale modeled after the one reported by Quinton and Halliwell, and Weissman. Rats were placed individually in a covered plastic cage measuring approximately 26 cm.×42 cm×16 cm. After a brief period of acclimation of the cage, the rats in each group, commonly, five animals per dose level, were treated subcutaneously (s.c.) with a selected dose of the Derivative to be tested. They were then treated 1, 5 and 24 hrs. later with d-amphetamine sulfate, 5 mg./kg. intraperitoneally (i.p.). […] The time of rating chosen coincides with the peak action of amphetamine which is 60-80 min. after dosing.

dopamine receptors = biological target: T1, dopamine receptors (Rattus norvegicus, UniProt P61169); test: Inhibition of ^3 H-spiroperidol binding to dopamine receptors (rat corpus striatum homogenate); set-up: species or system rat (Sprague-Dawley CD); conditions: 0.5 nM ^3 H-spiroperidol, 10 min at 37° C.
T1 construct: brains were immediately dissected on an ice-cold glass plate to remove corpus striatum; from tissue; host or cells: rat corpus striatum, washed homogenate (Sprague-Dawley CD males)
T1 sequence (P61169 whole entry): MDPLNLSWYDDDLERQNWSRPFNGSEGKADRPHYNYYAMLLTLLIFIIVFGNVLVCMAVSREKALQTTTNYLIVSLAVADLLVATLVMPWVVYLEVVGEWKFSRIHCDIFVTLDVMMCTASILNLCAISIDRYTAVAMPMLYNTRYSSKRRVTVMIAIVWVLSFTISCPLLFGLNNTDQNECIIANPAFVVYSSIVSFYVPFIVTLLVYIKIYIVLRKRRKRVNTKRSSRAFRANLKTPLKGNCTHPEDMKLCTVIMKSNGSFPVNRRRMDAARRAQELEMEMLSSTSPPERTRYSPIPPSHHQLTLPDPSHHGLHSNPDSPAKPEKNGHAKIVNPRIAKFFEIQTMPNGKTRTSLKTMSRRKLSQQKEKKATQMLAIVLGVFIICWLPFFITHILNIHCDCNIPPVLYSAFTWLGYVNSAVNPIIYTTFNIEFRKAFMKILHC
Method: The procedure was as follows:
Rats (Sprague-Dawley CD males, 250-300 g., Charles River Laboratories, Wilmington, Mass.) were decapitated, and brains were immediately dissected on an ice-cold glass plate to remove corpus striatum (~100 mg./brain). Tissue was homogenized in 40 volumes (1 g.+40 ml). of ice-cold 50 mM. […] The tissue suspension was placed in a 37° C. water bath for 5 minutes to insure inactivation of tissue monoamine oxidase and then kept on ice until used. The incubation mixture consisted of 0.02 ml. inhibitor solution (the desired concentration of the derivative to be tested in stock solution). […] Tubes were incubated in sequence for 10 minutes at 37° C. in groups of three, after which 0.9 ml. of each incubation tube was filtered through Whatman FG/B filters using a high vacuum pump. Each filter was placed in a scintillation vial, 10 ml. of liquid scintillation fluor was added and each vial was vigorously vortexed for about five seconds. Samples were allowed to stand over night, until filters were translucent, vortexed again and then counted 1.0 minute for radioactivity. Binding was calculated as femtomales (10^-15 moles) of ^3 H-spiroperidol bound per mg. protein. Controls (vehicle or 1 butaclamol, 10^-7 M; 4.4 mg. dissolved in 200 μl. glacial acetic acid, then diluted to 2.0 ml. with DDW for 10^-4 M stock solution, kept refrigerated), blank (d-butaclamol, 10^-7 M; (4.4 mg./2 ml.) for 10^-4 M stock solution, same protocol as 1-butaclamol); and inhibitor solutions were run in triplicate. […] Insoluble drugs were dissolved in 50% ethanol (1% ethanol incubation).
**DDW=Double Distilled Water.

[2] = 1 h, s.c., d-amphetamine sulfate 5 mg/kg i.p. 1 hr after treatment, read-out: ED50, rat amphetamine test, 1 hr.
[3] = 5 h, read-out: ED50, rat amphetamine test, 5 hr., s.c., d-amphetamine sulfate 5 mg/kg i.p. 5 hr after treatment
[4] = 24 h, s.c., d-amphetamine sulfate 5 mg/kg i.p. 24 hr after treatment, read-out: ED50, rat amphetamine test, 24 hr.
[5] = s.c., d-amphetamine sulfate 5 mg/kg i.p. 1 hr after treatment
[6] = s.c., d-amphetamine sulfate 5 mg/kg i.p. 5 hr after treatment
[7] = s.c., d-amphetamine sulfate 5 mg/kg i.p. 24 hr after treatment

Structure (SMILES) | IC50 (dopamine receptors) | ED50 [1, 2] | ED50 [1, 3] | ED50 [1, 4] | ED50, rat amphetamine test, 1 hr. [1, 5] | ED50, rat amphetamine test, 5 hr. [1, 6] | ED50, rat amphetamine test, 24 hr. [1, 7]
CC(=O)NCCN1CC[C@H]2[C@H](C1)c1cc(F)ccc1N2c1ccc(F)cc1 (relative stereo) [Example 6, 2-(N-acetyl-2-aminoethyl)-5-(p-fluorophenyl)-8-fluoro-2,3,4,4a,5,9b-hexahydro-trans-4a,9b-1(H)-pyrido[4,3-b]indole] | 16 nM | 0.11 mg/kg | 0.36 mg/kg | 1 mg/kg |  |  | 
CC(=O)NCCCN1CC[C@H]2[C@H](C1)c1cc(F)ccc1N2c1ccc(F)cc1 (relative stereo) [Example 7, (±) 2-(N--acetyl-1'-amino-n-prop-3-yl)] | 10 nM |  |  |  |  |  | 
CC(=O)NCCCCCN1CC[C@H]2[C@H](C1)c1cc(F)ccc1N2c1ccc(F)cc1 (relative stereo) [Example 8, (±) 2-(N--acetyl-1'-amine-n-pent-5'-yl)] | 9 nM | 0.01 mg/kg | 0.004 mg/kg | 0.4 mg/kg |  |  | 
CC(=O)NCCCCCCN1CC[C@H]2[C@H](C1)c1cc(F)ccc1N2c1ccc(F)cc1 (relative stereo) [Example 9, (±) 2-(N--acetyl-1'-amino-n-hex-6'-yl)] | 8 nM | 0.023 mg/kg | 0.002 mg/kg | 0.032 mg/kg |  |  | 
CC(=O)NCCCCCCCN1CC[C@H]2[C@H](C1)c1cc(F)ccc1N2c1ccc(F)cc1 (relative stereo) [Example 10, (±) 2-(N--acetyl-1'-amino-n-hept-7'-yl)] | 9 nM | 0.09 mg/kg | 0.018 mg/kg | 0.05 mg/kg |  |  | 
O=C(NCCCCN1CC[C@H]2[C@H](C1)c1cc(F)ccc1N2c1ccc(F)cc1)c1ccccc1 (relative stereo) [Example 13, (±) 2-(N--benzoyl-1'-amino-n-but-4'-yl)] |  | 0.1 to 0.3 mg/kg | 0.01 to 0.03 mg/kg | 0.3 to 1 mg/kg |  |  | 
Cc1ccc(S(=O)(=O)NCCCCN2CC[C@H]3[C@H](C2)c2cc(F)ccc2N3c2ccc(F)cc2)cc1 (relative stereo) [Example 16, (±) 2-(N--p-toluenesulfonyl-1'-amino-n-but-4'-yl)] |  | 1 mg/kg | 1 mg/kg |  |  |  | 
CC(=O)NCCCCN1CC[C@H]2[C@H](C1)c1ccccc1N2c1ccccc1 (relative stereo) [Example 17, (±) 2-(N--acetyl-1'-amino-n-but-4'-yl)-5-phenyl-2,3,4,-4a,9b-hexahydro-trans-4a,9b-1(H)-pyrido[4,3-b]indole] | 16 nM |  |  |  |  |  | 
CC(=O)NCCCCN1CCC2C(C1)c1cc(F)ccc1N2c1ccc(F)cc1 (single isomer, unassigned; (-)) [Example 12, (-) enantiomer of 2-(N--acetyl-1'-amino-n-but-4'-yl)] | 1000 nM |  |  |  | 1 mg/kg | 1 mg/kg | 1 mg/kg

Further lines, with some results ahead:

IC50 (dopamine receptors) | Structure (SMILES) | ED50 [1, 2] | ED50 [1, 3] | ED50 [1, 4] | ED50, rat amphetamine test, 1 hr. [1, 5] | ED50, rat amphetamine test, 5 hr. [1, 6] | ED50, rat amphetamine test, 24 hr. [1, 7]
24 nM | NCCCCN1CC[C@H]2[C@H](C1)c1cc(F)ccc1N2c1ccc(F)cc1 (relative stereo) [Example 2, (±)2-(1'-amino-n-but-4'-yl)-5-(p-fluorophenyl)-8-fluoro-2,3,4,4a,5,9b-hexahydro-trans-4a,9b-1(H)-pyrido[4,3-b]indole] | 17.7 mg/kg | 4.5 to 11.5 mg/kg | 17.7 mg/kg |  |  | 
13 nM | CC(=O)NCCCCN1CC[C@H]2[C@H](C1)c1cc(F)ccc1N2c1ccc(F)cc1 (relative stereo) [Example 3, (±)2-(N-acetyl-1'-amino-n-but-4'-yl)-5-(p-fluorophenyl)-8-fluoro-2,3,4,4a,5,9b-hexahydro-trans-4a,9b-1(H)-pyrido[4,3-b]indole] | 0.02 mg/kg | 0.006 mg/kg | 0.66 mg/kg |  |  | 
11 nM | CCOC(=O)NCCCCN1CC[C@H]2[C@H](C1)c1cc(F)ccc1N2c1ccc(F)cc1 (relative stereo) [Example 14, (±) 2-(N--ethoxycarbonyl-1'-amino-n-but-4'-yl)] | 0.05 mg/kg | 0.02 mg/kg | 0.3 mg/kg |  |  | 
14 nM | COc1ccccc1C(=O)NCCCCN1CC[C@H]2[C@H](C1)c1cc(F)ccc1N2c1ccc(F)cc1 (relative stereo) [Example 15, (±) 2-[N--(o-methoxybenzoyl)-1'-amino-n-but-4'-yl]] | 0.45 mg/kg | 0.18 mg/kg | 1 mg/kg |  |  | 
4.7 nM | CC(=O)NCCCCN1CCC2C(C1)c1cc(F)ccc1N2c1ccc(F)cc1 (single isomer, unassigned; (+)) [Example 11, (+) enantiomer of 2-(N--acetyl-1-'-amino-n-but-4-yl)] |  |  |  | 0.02 mg/kg | 0.006 mg/kg | 0.28 mg/kg
